Experimental data from US20240024291A1, “Uses of Dihydroorotate Dehydrogenase Inhibitors” (University of Maryland, Baltimore, priority 2022, published 2024).

Columns and labels:
[1] = test system: EGFRviii expressing 08-387 and 913 glioblastoma cells; test: Gemcitabine sensitization assay (Alamar blue); type: cell-based, human; conditions: varying dosages of gemcitabine and 0.05 nM of compound 1
Description: Ten thousand 08-387 or 913 glioblastoma cells per well were seeded in a 96 well plate. […] Post 72 hr of treatment, cell viability was calculated on Alamar blue absorbance reading.
To further evaluate the potential role of EGFR in compound 1 resistance, the 913 and 08-387 neurosphere lines were transduced with lentiviruses encoding EGFRvIll or GFP (as control) and these neurospheres were challenged with a relatively high dose of 1 mM compound 1.

Mayo 6 = test: Approved Oncology Drugs Set screen alone and combined with DHODHi; conditions: for Alone (growth, drug alone): Mayo 6, drug alone; for Combination (growth, drug combined with DHODHi): Mayo 6, drug combined with DHODHi (10 μM)
Description: To identify potential small molecules that can synergize with DHODHi, the Approved Oncology Drugs Set (NIH Developmental Therapeutics Program) was screened alone and combined with DHODHi (10 μM) against Mayo 6.

Mayo 39 neurospheres = test: Sorafenib and DHODHi combination, SynergyFinder; type: cell-based, human; conditions: Mayo 39 GBMs
Mayo 6 neurospheres = test: Sorafenib and DHODHi combination, SynergyFinder

Nc1ccn([C@@H]2O[C@H](CO)[C@@H](O)C2(F)F)c(=O)n1 [gemcitabine, reference compound]
sensitivity of glioblastomas to gemcitabine [1]: sensitive

CNC(=O)c1cc(Oc2ccc(NC(=O)Nc3ccc(Cl)c(C(F)(F)F)c3)c(F)c2)ccn1 [Regorafenib, regorafenib]
Alone (growth, drug alone) (Mayo 6): 1.00
Combination (growth, drug combined with DHODHi) (Mayo 6): 0.64

C=CC(=O)Nc1cc(Nc2nccc(-c3cn(C)c4ccccc34)n2)c(OC)cc1N(C)CCN(C)C [Osimertinib, osimertinib]
Alone (growth, drug alone) (Mayo 6): 0.35
Combination (growth, drug combined with DHODHi) (Mayo 6): 0.0001

CNC(=O)c1cc(Oc2ccc(NC(=O)Nc3ccc(Cl)c(C(F)(F)F)c3)cc2)ccn1 [Sorafenib]
sensitization to DHODHi by Sorafenib (Mayo 39 neurospheres): moderately sensitized
most synergistic area score (Mayo 6 neurospheres; Mayo 6, Sorafenib in combination with DHODHi): 10.48
sensitization to DHODHi by Sorafenib (Mayo 6 neurospheres; Mayo 6 GBMs, SynergyFinder): moderately sensitized
